Test results published in PubChem BioAssay AID1645868 (Buhrlage Lab, Dana-Farber Cancer Institute and Novartis …, 2021).
Active and inactive are the calls of the source.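 How the source made its calls: active means maximal percent inhibition of the deubiquitinase OTUD3 of at least 30% across the tested doses; inactive means the rest.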

These compounds were tested against OTU domain-containing protein 3 (Homo sapiens) (UniProt Q5T2D3) (assay: Validation of screening hits, potency titration, in vitro enzymatic, OTU domain-containing protein 3 DUB inhibitors (AID 1645868)). Settings: purified OTUD3, ubiquitin-rhodamine cleavage fluorescence, 2 h.
Sequence of OTU domain-containing protein 3 (Homo sapiens) (Q5T2D3 whole entry, looked up, the tested form may be a part): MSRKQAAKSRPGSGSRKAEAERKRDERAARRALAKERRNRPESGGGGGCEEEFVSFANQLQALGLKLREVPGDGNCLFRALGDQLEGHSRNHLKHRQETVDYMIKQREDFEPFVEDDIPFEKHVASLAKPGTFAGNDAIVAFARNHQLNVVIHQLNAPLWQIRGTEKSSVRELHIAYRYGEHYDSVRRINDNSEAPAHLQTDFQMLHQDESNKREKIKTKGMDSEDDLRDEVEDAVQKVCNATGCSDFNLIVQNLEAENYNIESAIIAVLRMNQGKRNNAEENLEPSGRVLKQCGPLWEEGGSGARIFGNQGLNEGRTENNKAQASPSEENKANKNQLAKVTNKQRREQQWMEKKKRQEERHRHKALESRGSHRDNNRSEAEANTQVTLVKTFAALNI

| SMILES | IC50 |
| --- | --- |
| O=C(Nc1ccc2c(c1)OCCO2)c1ccc(N2CCCC2=O)cc1 | > 50 µM (inactive) |
| COCCCN1CCS(=O)(=O)c2c(Cl)c(F)nc(Oc3ccccc3F)c21 | > 50 µM (inactive) |
| CS(=O)(=O)N1CCc2cc(C(=O)Nc3ccc(Cc4ccncc4)cc3)ccc21 | > 50 µM (inactive) |
| c1ccc(CCN2CCc3nc4cccnc4cc3C2)nc1 | > 50 µM (inactive) |
| O=C(Nc1ccncc1)c1ncoc1-c1cccc(Cl)c1 | > 50 µM (inactive) |
| Cc1ncncc1C(=O)N1CCCC(C)(c2ncc(Cc3cccc(F)c3)o2)C1 (configuration not stated) | > 50 µM (inactive) |
| CCCc1nc2sc3c(NC4CCCCC4)ncnc3c2c2c1CCC2 | > 50 µM (inactive) |
| O=C(NCc1ccc2c(c1)OCO2)c1nn(C23CC4CC(CC(C4)C2)C3)cc1[N+](=O)[O-] | > 50 µM (inactive) |
| CCc1ccc(NC(=O)COC(=O)c2n[nH]c3ccccc23)cc1 | 49.8 µM |
| O=S1(=O)CCN(Cc2cccnc2)c2c(F)nc(N3CCOCC3)c(F)c21 | > 50 µM (inactive) |
| COc1cc2c(oc(=O)c3cc(C)cc(OC)c32)c2c([C@@H]3OC(C)[C@@H](O)[C@@](C)(O)C3O)ccc(O)c12 (some centres not stated) | > 50 µM (inactive) |
| Cc1cc(Cl)c2c(c1)[C@]1(C(=O)N2)N2CCC[C@H]2[C@@H](C(=O)c2cc3ccccc3o2)[C@]12C(=O)Nc1ccccc12 | > 50 µM (inactive) |
| Cc1cnc2nc3c(cc2c1)CN(S(=O)(=O)c1cc(F)ccc1C)CC3 | > 50 µM (inactive) |
| O=C(NCc1ccccc1)c1ccc2c(=O)n(-c3ccccc3)c(=O)[nH]c2c1 | 38.1 µM |
| CCn1cnc2ccc(C(=O)NC3CC3)cc2c1=O | > 50 µM (inactive) |
| O=C(NC1CCCCC1)c1cc2c(cn1)[nH]c1ccccc12 | > 50 µM (inactive) |
| O=C(Nc1ccccc1)c1cn2c3c(cccc3c1=O)CC2 | > 50 µM (inactive) |
| COCC(=O)Nc1cc(F)c2nc(N3CCOCC3)ccc2c1 | > 50 µM (inactive) |
| CC(C)Oc1ccc(C(=O)Nc2cccc(S(=O)(=O)N3CCCC3)c2)cc1 | > 50 µM (inactive) |
| NS(=O)(=O)c1ccc(NS(=O)(=O)c2ccc(NC(=O)Nc3ccc(Cl)cc3)cc2)cc1 | 38.2 µM |

| SMILES | IC50 |
| --- | --- |
| O=C(CSc1nnnn1-c1ccccc1)Nc1ccccc1 | > 50 µM (inactive) |
| Nc1ccc(F)c(NS(=O)(=O)c2ccccc2)c1 | > 50 µM (inactive) |
| Cc1cccc(NC(=O)Cn2c(N3CCOCC3)nc3cc(C)n(C)c3c2=O)c1 | 40.6 µM |
| O=C(c1cccnc1)N1CCC2(CC1)CC1(CO2)Nc2ccccc2-n2cccc21 (configuration not stated) | > 50 µM (inactive) |
| NC(=O)CCC(=O)N[C@H]1C[C@H]2CN(Cc3ccccc3)c3ccccc3CN2C1 | > 50 µM (inactive) |
| O=C(CN1CCCCC1)Nc1nnc(-c2ccc([N+](=O)[O-])cc2)s1 | 18.9 µM |
| O=C(Cc1noc2ccccc12)N1CCN(c2ccc([N+](=O)[O-])cc2)CC1 | > 50 µM (inactive) |
| COc1cccc(CNC(=O)c2ccc3c(c2)NC(=O)C2CCCN32)c1OC (configuration not stated) | > 50 µM (inactive) |
| CN1CCN(c2ncnc3c2oc2ccc(Cl)cc23)CC1 | > 50 µM (inactive) |
| O=C(COc1nc2ccccc2nc1N1CCOCC1)NC(c1ccccc1)c1ccccc1 | > 50 µM (inactive) |
| Cc1cc(C(=O)Nc2ccc3c(c2)OCCO3)no1 | > 50 µM (inactive) |
| CC1CCN(S(=O)(=O)c2ccc(C(=O)Nc3ccc(S(N)(=O)=O)cc3)cc2)CC1 | > 50 µM (inactive) |
| O=C(CSc1ncnc2c1oc1ccccc12)NC1CCCC1 | 24.4 µM |
| CCC(=O)Nc1ccc2c(c1)nc(CSc1nccc(C)n1)n2CC | > 50 µM (inactive) |
| COc1cccc2cc(C(=O)Nc3ccc4c(c3)OCCO4)oc12 | > 50 µM (inactive) |
| COc1ccc(C(=O)Nc2sc3c(c2C(=O)NCc2cccnc2)CCCC3)cc1 | > 50 µM (inactive) |
| Cc1sc2ccn(C)c(=O)c2c1C(=O)NC1CCCC1 | 30.8 µM |
| CC(C)=CCCC1(C)OC2=C(C(=O)c3cc(O)cc(O)c3C2=O)[C@H]2C=C(C)CC[C@H]21 (some centres not stated) | > 50 µM (inactive) |
| COc1ccc(NC(=O)CC(=O)c2ccc([N+](=O)[O-])cc2)cc1S(=O)(=O)Nc1ccc(Cl)cc1 | 35.5 µM |
| O=C(COC(=O)c1ccc2ncsc2c1)Nc1ccccc1F | > 50 µM (inactive) |

| SMILES | IC50 |
| --- | --- |
| Oc1sc(C=Nc2cc(Cl)ccc2Cl)c2ccccc12 | > 50 µM (inactive) |
| c1csc(CCN2CCc3nc4cccnc4cc3C2)c1 | > 50 µM (inactive) |
| Cc1cc(C)nc(SCCn2c(N3CCC(Cc4ccccc4)CC3)nc3c2c(=O)n(C)c(=O)n3C)n1 | > 50 µM (inactive) |
| COc1cccc(NC(=O)c2nnn(-c3ccccc3)n2)c1 | > 50 µM (inactive) |
| CCN1CCN(C(=O)CCCN(c2ccccc2)S(C)(=O)=O)CC1 | > 50 µM (inactive) |
| CCCCCC(=O)N1c2ccccc2NC2=C(C(=O)CC(c3ccc(C(C)(C)C)cc3)C2)C1c1ccncc1 (configuration not stated) | 19.7 µM |
| COc1ccc(NC(=O)C2CC(=O)Nc3c(-c4ccc(Cl)cc4)cnn32)c(OC)c1 (configuration not stated) | 34 µM |
| COc1cccc2c1OCC(C(=O)NCc1ccc(F)cc1)=C2 | > 50 µM (inactive) |
| CCC(CC)n1[nH]c(=O)c2c1NC(=O)CSC2c1ccc2c(c1)OCO2 (configuration not stated) | 19.3 µM |
| COc1cc(/C=C/C(=O)OCC(=O)Nc2ccc([N+](=O)[O-])cc2OC)ccc1O | 24.4 µM |
| O=C(CCCCn1c(=O)[nH]c2ccccc2c1=O)Nc1cccc(Cl)c1 | 21.6 µM |
| COc1ccc(C)cc1NC(=O)COc1ccc2c(c1)OCO2 | > 50 µM (inactive) |
| CC(C)(C)C(=O)NC(c1ccccc1)c1nnc(N2CCOCC2)o1 (configuration not stated) | > 50 µM (inactive) |
| NC(=O)C1(N2CCCCC2)CCN(C(=O)c2[nH]nc3c2CCc2ccccc2-3)CC1 | > 50 µM (inactive) |
| O=C(Nc1cccc(Cl)c1)N1CCC(c2cc(-c3ccco3)n[nH]2)CC1 | > 50 µM (inactive) |
| O=C1c2ccccc2NC2(C(=O)Nc3ccc(Br)cc32)N1c1ccccc1 (configuration not stated) | > 50 µM (inactive) |
| O=[N+]([O-])c1ccc2c(c1)nc1n2CCN(Cc2ccco2)C1 | > 50 µM (inactive) |
| Cc1nn(-c2ccc(Cl)cc2)c2[nH]c(=O)c(CNCC3CCCO3)cc12 (configuration not stated) | > 50 µM (inactive) |

Further lines, results first:

| IC50 | SMILES |
| --- | --- |
| > 50 µM (inactive) | COc1ccc2nc(-c3ccc(NC(=O)c4cccc(OC)c4OC)cc3)cn2n1 |
| > 50 µM (inactive) | CC1Oc2ccccc2C(=O)N(Cc2ccc([N+](=O)[O-])cc2)C1=O (configuration not stated) |
| > 50 µM (inactive) | Cc1ccc2nc(-c3cccc(-c4nc5ccc(C)cc5[nH]4)n3)[nH]c2c1 |
| > 50 µM (inactive) | CCOc1ccc2cc3c(nc2c1)OC(=O)N(Cc1ccc(C)o1)C3 |
| > 50 µM (inactive) | Nc1c(C(=O)NCCc2ccccc2)nnn1-c1ccc(F)cc1 |
| > 50 µM (inactive) | Cc1cc(/C=C2/C(=N)N3C(c4ccccc4)=CSC3=NC2=O)c(C)n1-c1ccc2ccccc2c1 |
| > 50 µM (inactive) | Fc1ccccc1Cc1nc(-c2ccc3nncn3c2)no1 |
| > 50 µM (inactive) | Cc1ccc(-c2nnc(-n3ncc(C#N)c3N)c3ccccc23)cc1C |
| > 50 µM (inactive) | Cc1ccc(N=Cc2sc(O)c3ccccc23)c(C)c1 |
| > 50 µM (inactive) | Cc1ccc(S(=O)(=O)NCC(=O)OC(C(=O)Nc2cc(C)ccc2C)c2ccccc2)cc1 (configuration not stated) |
| > 50 µM (inactive) | Cc1nc(SCC(=O)Nc2cc(Cl)ccc2C)c2oc3ccccc3c2n1 |
| > 50 µM (inactive) | Cn1nc(-c2ccccc2)c(COC(=O)c2ccc([N+](=O)[O-])cc2)c1Cl |
| 20.2 µM | O=C(CSc1nnc(Cn2cnc3ccccc32)o1)Nc1ccc([N+](=O)[O-])cc1 |
| > 50 µM (inactive) | COc1cnc(-c2ccccn2)nc1Sc1ccc(C)cc1 |
| > 50 µM (inactive) | O=C(Nc1ccc(Br)cn1)c1nc2ccccc2nc1N1CCCCC1 |
| > 50 µM (inactive) | Cc1ccc(-c2nc(Cn3nnc(-c4nc(-c5ccccn5)no4)c3C)c(C)o2)cc1 |
| 32.4 µM | CCOc1ccccc1C(=O)Oc1ccc2c(C)cc(=O)oc2c1 |
| > 50 µM (inactive) | O=C(Nc1ccc(-c2nnc3n2CCCCC3)cc1)c1ccc2c(c1)OCO2 |
| > 50 µM (inactive) | COc1ccc2nc(Nc3ncc4c(n3)CCCC4=O)nc(C)c2c1 |
| 24.3 µM | Cc1nn(-c2ccc([N+](=O)[O-])cc2)c(C)c1-c1nc2ccccc2[nH]1 |

| IC50 | SMILES |
| --- | --- |
| > 50 µM (inactive) | CNc1nc2c(c(=O)n1Cc1ccccc1)CN(C(=O)c1ccc(CN)cc1)CC2 |
| > 50 µM (inactive) | COc1ccc(CN=C2NS(=O)(=O)C(c3ccc(F)cc3)=C2C)cc1OC |
| > 50 µM (inactive) | COc1ccc(CCNC(=O)c2ccc3ccccc3c2)cc1OC |
| 38.8 µM | COc1ccccc1NC(=O)CNC(=O)c1nn(-c2ccc(OC)c(OC)c2)c(=O)c2ccccc12 |
| 3.53 µM | CC(NC(=O)c1ccccc1)c1nc2ccccc2n1CC(=O)Nc1ccc2c(c1)OCO2 (configuration not stated) |
| > 50 µM (inactive) | FC(F)(F)c1ccccc1CCN1CCc2nc3ccc(Cl)cc3cc2C1 |
| > 50 µM (inactive) | COc1ccc(CNC(=O)CN2C(=O)C(C)=C(c3ccc(C)cc3)S2(=O)=O)cc1 |
| > 50 µM (inactive) | COc1ccc(-n2ccc(=O)c(-c3nc(-c4ccccc4F)no3)n2)cc1OC |
| > 50 µM (inactive) | Cc1ccc(-c2nc(N3CCCC(O)C3)ncc2-c2cnccn2)s1 (configuration not stated) |
| > 50 µM (inactive) | CCc1nc(-c2cccc(NC(=O)c3ccc(C#N)cc3F)c2)no1 |
| 3.73 µM | CC1=C(Cn2c3cccc(=O)c-3nc3ccccc32)CCC(C)(C)C1 |
| > 50 µM (inactive) | Cc1cc(C)n2nc(CNc3cccc(Cl)c3)nc2n1 |
| > 50 µM (inactive) | O=C(Nc1ccccc1)c1nc(-c2cn(Cc3ccc(F)cc3)nn2)no1 |
| > 50 µM (inactive) | Cc1cnc(CN2CCCC(c3ccc4cn[nH]c4n3)C2)cn1 (configuration not stated) |
| > 50 µM (inactive) | COc1ccc(C(=O)Nc2ccc3c(c2)Sc2ncccc2C(=O)N3C)cn1 |
| 22.4 µM | COc1cccc(NC(=O)Cc2sc(Nc3cc(C)cc(C)c3)nc2O)c1 |
| > 50 µM (inactive) | COc1ccc(C(=O)CSc2ccc3nnc(CCNC(=O)c4ccc(OC)cc4)n3n2)cc1 |
| > 50 µM (inactive) | COc1ccc(-c2cnnn2-c2ccc(NC(=O)c3c(F)cccc3F)cc2)cc1OC |
| > 50 µM (inactive) | Cc1cc(C(=O)Nc2cc(C)n(Cc3ccc(Cl)cc3)n2)no1 |
